Measurements from ChEMBL document CHEMBL1201861, “Genomics of Drug Sensitity in Cancer screening data, Wellcome Trust Sanger Institute”.

Experiments:
Test in all cases: cells
CaR-1 = assay type: functional, cell-based, Homo sapiens; conditions: Homo sapiens, CaR-1;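 further: growth inhibition of human CaR-1 cancer cells, read out with a cell viability assay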
Description: SANGER: Inhibition of human CaR-1 cell growth in a cell viability assay.

D-336MG = assay type: functional, cell-based, Homo sapiens; conditions: Homo sapiens, D-336MG
Description: SANGER: Inhibition of human D-336MG cell growth in a cell viability assay.

D-542MG = assay type: functional, cell-based, Homo sapiens; conditions: Homo sapiens, D-542MG
Description: SANGER: Inhibition of human D-542MG cell growth in a cell viability assay.

G-401 = assay type: functional, cell-based, Homo sapiens; conditions: Homo sapiens, G-401
Description: SANGER: Inhibition of human G-401 cell growth in a cell viability assay.

GMS-10 = assay type: functional, cell-based, Homo sapiens; conditions: Homo sapiens, GMS-10;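 further: growth inhibition of GMS-10 cells, read out as cell viability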
Description: SANGER: Inhibition of human GMS-10 cell growth in a cell viability assay.

HCC1937 = assay type: functional, cell-based, Homo sapiens; conditions: Homo sapiens, HCC1937;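 further: growth inhibition measured with a cell viability read-out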
Description: SANGER: Inhibition of human HCC1937 cell growth in a cell viability assay.

HT1197 = assay type: functional, cell-based, Homo sapiens, HT-1197; conditions: Homo sapiens, HT1197
Description: SANGER: Inhibition of human HT-1197 cell growth in a cell viability assay.

HTC-C3 = assay type: functional, cell-based, Homo sapiens; conditions: Homo sapiens, HTC-C3;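 further: inhibition of cell growth, read out with a cell viability assay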
Description: SANGER: Inhibition of human HTC-C3 cell growth in a cell viability assay.

KU-19-19 = assay type: functional, cell-based, Homo sapiens; conditions: Homo sapiens, KU-19-19
Description: SANGER: Inhibition of human KU-19-19 cell growth in a cell viability assay.

KYSE-410 = assay type: functional, cell-based, Homo sapiens; conditions: Homo sapiens, KYSE-410;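 further: growth inhibition of KYSE-410 cells, measured through a cell viability readout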
Description: SANGER: Inhibition of human KYSE-410 cell growth in a cell viability assay.

MC-IXC = assay type: functional, cell-based, Homo sapiens; conditions: Homo sapiens, MC-IXC;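 further: growth inhibition of MC-IXC cells, read out with a cell viability assay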
Description: SANGER: Inhibition of human MC-IXC cell growth in a cell viability assay.

MEL-JUSO = assay type: functional, cell-based, Homo sapiens; conditions: Homo sapiens, MEL-JUSO;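 further: growth inhibition of human MEL-JUSO cells, read out with a cell viability assay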
Description: SANGER: Inhibition of human MEL-JUSO cell growth in a cell viability assay.

MKN-1 = assay type: functional, cell-based, Homo sapiens; conditions: Homo sapiens, MKN-1;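 further: growth inhibition of human MKN1 cells, read out by a cell viability measurement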
Description: SANGER: Inhibition of human MKN1 cell growth in a cell viability assay.

MOLT-13 = assay type: functional, cell-based, Homo sapiens; conditions: Homo sapiens, MOLT-13;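 further: IC50 for suppression of MOLT-13 cell growth, read out with a cell viability assay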
Description: SANGER: Inhibition of human MOLT-13 cell growth in a cell viability assay.

MeWo = assay type: functional, cell-based, Homo sapiens; conditions: Homo sapiens, MeWo;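 further: growth inhibition of MeWo cells, determined by a cell viability readout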
Description: SANGER: Inhibition of human Mewo cell growth in a cell viability assay.

NCI-H1048 = assay type: functional, cell-based, Homo sapiens; conditions: Homo sapiens, NCI-H1048;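 further: growth inhibition of human NCI-H1048 cells, read out with a cell viability assay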
Description: SANGER: Inhibition of human NCI-H1048 cell growth in a cell viability assay.

NCI-H1792 = assay type: functional, cell-based, Homo sapiens; conditions: Homo sapiens, NCI-H1792;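 further: growth inhibition of human NCI-H1792 cells, read out as cell viability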
Description: SANGER: Inhibition of human NCI-H1792 cell growth in a cell viability assay.

NCI-H2009 = assay type: functional, cell-based, Homo sapiens; conditions: Homo sapiens, NCI-H2009;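 further: cell viability assay measuring inhibition of NCI-H2009 cell growth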
Description: SANGER: Inhibition of human NCI-H2009 cell growth in a cell viability assay.

NCI-H441 = assay type: functional, cell-based, Homo sapiens; conditions: Homo sapiens, NCI-H441;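 further: growth inhibition of NCI-H441 cells, read out with a cell viability assay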
Description: SANGER: Inhibition of human NCI-H441 cell growth in a cell viability assay.

OAW-28 = assay type: functional, cell-based, Homo sapiens; conditions: Homo sapiens, OAW-28;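 further: growth inhibition of OAW-28 cells, read out with a cell viability assay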
Description: SANGER: Inhibition of human OAW-28 cell growth in a cell viability assay.

PANC-08-13 = assay type: functional, cell-based, Homo sapiens; conditions: Homo sapiens, PANC-08-13;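 further: cell growth inhibition, measured with a cell viability assay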
Description: SANGER: Inhibition of human PANC-08-13 cell growth in a cell viability assay.

RPMI-2650 = assay type: functional, cell-based, Homo sapiens; conditions: Homo sapiens, RPMI-2650
Description: SANGER: Inhibition of human RPMI-2650 cell growth in a cell viability assay.

SBC-5 = assay type: functional, cell-based, Homo sapiens; conditions: Homo sapiens, SBC-5;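 further: cell viability assay read-out, IC50 is the concentration that inhibits growth of the cells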
Description: SANGER: Inhibition of human SBC-5 cell growth in a cell viability assay.

SK-LU-1 = assay type: functional, cell-based, Homo sapiens; conditions: Homo sapiens, SK-LU-1;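 further: cell viability assay measuring growth inhibition of human SK-LU-1 cells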
Description: SANGER: Inhibition of human SK-LU-1 cell growth in a cell viability assay.

SK-MEL-30 = assay type: functional, cell-based, Homo sapiens; conditions: Homo sapiens, SK-MEL-30;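 further: growth inhibition of SK-MEL-30 cells, determined with a cell viability assay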
Description: SANGER: Inhibition of human SK-MEL-30 cell growth in a cell viability assay.

SW48 = assay type: functional, cell-based, Homo sapiens; conditions: Homo sapiens, SW48;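 further: growth inhibition of SW48 cells, read out with a cell viability assay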
Description: SANGER: Inhibition of human SW48 cell growth in a cell viability assay.

SW756 = assay type: functional, cell-based, Homo sapiens; conditions: Homo sapiens, SW756;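 further: growth inhibition of human SW756 cells, read out with a cell viability assay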
Description: SANGER: Inhibition of human SW756 cell growth in a cell viability assay.

T84 = assay type: functional, cell-based, Homo sapiens; conditions: Homo sapiens, T84;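 further: growth inhibition measured with a cell viability readout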
Description: SANGER: Inhibition of human T84 cell growth in a cell viability assay.

T98G = assay type: functional, cell-based, Homo sapiens; conditions: Homo sapiens, T98G;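 further: growth inhibition of T98G cells, read out by a cell viability assay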
Description: SANGER: Inhibition of human T98G cell growth in a cell viability assay.

23132-87 = assay type: functional, cell-based, Homo sapiens; conditions: Homo sapiens
Description: SANGER: Inhibition of human 23132-87 cell growth in a cell viability assay.

647-V = assay type: functional, cell-based, Homo sapiens; conditions: Homo sapiens, 647-V;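 further: growth inhibition of 647-V cells, read out with a cell viability assay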
Description: SANGER: Inhibition of human 647-V cell growth in a cell viability assay.

A2780 = assay type: functional, cell-based, Homo sapiens; conditions: Homo sapiens, A2780;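 further: growth inhibition of A2780 cells, read out with a cell viability assay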
Description: SANGER: Inhibition of human A2780 cell growth in a cell viability assay.

ASPC1 = assay type: functional, cell-based, Homo sapiens; conditions: Homo sapiens, ASPC1;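 further: growth inhibition of AsPC-1 cells, read out with a cell viability assay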
Description: SANGER: Inhibition of human AsPC-1 cell growth in a cell viability assay.

BPH-1 = assay type: functional, cell-based, Homo sapiens; conditions: Homo sapiens, BPH-1;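 further: cell viability assay measuring growth inhibition of human BPH-1 cells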
Description: SANGER: Inhibition of human BPH-1 cell growth in a cell viability assay.

CAL-120 = assay type: functional, cell-based, Homo sapiens; conditions: Homo sapiens, CAL-120;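 further: cell growth inhibition, read out as cell viability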
Description: SANGER: Inhibition of human CAL-120 cell growth in a cell viability assay.

UO-31 = assay type: functional, cell-based, Homo sapiens; conditions: Homo sapiens, UO-31;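 further: cell viability assay measuring inhibition of cell growth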
Description: SANGER: Inhibition of human U031 cell growth in a cell viability assay.

UACC-62 = assay type: functional, cell-based, Homo sapiens; conditions: Homo sapiens, UACC-62;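 further: growth inhibition of human UACC-62 cells, read out by a cell viability assay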
Description: SANGER: Inhibition of human UACC-62 cell growth in a cell viability assay.

UMUC3 = assay type: functional, cell-based, Homo sapiens; conditions: Homo sapiens, UMUC3;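 further: growth inhibition of human UM-UC-3 cells, read out with a cell viability assay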
Description: SANGER: Inhibition of human UM-UC-3 cell growth in a cell viability assay.

VM-CUB-1 = assay type: functional, cell-based, Homo sapiens; conditions: Homo sapiens, VM-CUB-1;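 further: cell viability assay measuring growth inhibition of the human VM-CUB-1 cell line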
Description: SANGER: Inhibition of human VM-CUB-1 cell growth in a cell viability assay.

YH-13 = assay type: functional, cell-based, Homo sapiens; conditions: Homo sapiens, YH-13;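 further: cell viability readout of growth suppression in the human YH-13 cell line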
Description: SANGER: Inhibition of human YH-13 cell growth in a cell viability assay.

ZR-75-30 = assay type: functional, cell-based, Homo sapiens; conditions: Homo sapiens, ZR-75-30;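 further: growth inhibition of ZR-75-30 cells, measured with a cell viability readout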
Description: SANGER: Inhibition of human ZR-75-30 cell growth in a cell viability assay.

CHP-212 = assay type: functional, cell-based, Homo sapiens; conditions: Homo sapiens, CHP-212
Description: SANGER: Inhibition of human CHP-212 cell growth in a cell viability assay.

In the case of `Cc1cn(-c2cc(NC(=O)c3ccc(C)c(Nc4nccc(-c5cccnc5)n4)c3)cc(C(F)(F)F)c2)cn1` [NILOTINIB], the IC50 (CaR-1) is reported as > 2 µM, the IC50 (D-336MG) is reported as > 2 µM and the IC50 (D-542MG) is reported as > 2 µM. For the same compound, the IC50 (G-401) was > 2 µM, the IC50 (GMS-10) was > 2 µM and the IC50 (HCC1937) was > 2 µM. The IC50 (HT1197) was > 2 µM, the IC50 (HTC-C3) was > 2 µM and the IC50 (KU-19-19) was > 2 µM. For the same compound, the IC50 (KYSE-410) was > 2 µM, the IC50 (MC-IXC) was > 2 µM and the IC50 (MEL-JUSO) was > 2 µM. The IC50 (MKN-1) was > 2 µM, the IC50 (MOLT-13) was > 2 µM and the IC50 (MeWo) was > 2 µM. For the same compound, the IC50 (NCI-H1048) was > 2 µM, the IC50 (NCI-H1792) was > 2 µM and the IC50 (NCI-H2009) was > 2 µM. For the same compound, the IC50 (NCI-H441) was > 2 µM, the IC50 (OAW-28) was > 2 µM and the IC50 (PANC-08-13) was > 2 µM. The IC50 (RPMI-2650) was > 2 µM, the IC50 (SBC-5) was > 2 µM and the IC50 (SK-LU-1) was > 2 µM. The IC50 (SK-MEL-30) was > 2 µM, the IC50 (SW48) was > 2 µM and the IC50 (SW756) was > 2 µM. For the same compound, the IC50 (T84) was > 2 µM, the IC50 (T98G) was > 2 µM and the IC50 (23132-87) was > 2 µM. For the same compound, the IC50 (647-V) was > 2 µM, the IC50 (A2780) was > 2 µM and the IC50 (ASPC1) was > 2 µM. The IC50 (BPH-1) was > 2 µM, the IC50 (CAL-120) was > 2 µM and the IC50 (UO-31) was > 2 µM. The IC50 (UACC-62) was > 2 µM, the IC50 (UMUC3) was > 2 µM and the IC50 (VM-CUB-1) was > 2 µM. For the same compound, the IC50 (YH-13) was > 2 µM, the IC50 (ZR-75-30) was > 2 µM and the IC50 (CHP-212) was > 2 µM.
`Nc1cccc2c1CN(C1CCC(=O)NC1=O)C2=O` (centres undefined) [LENALIDOMIDE] was tested, and the IC50 (CaR-1) was > 5 µM, the IC50 (D-336MG) was > 5 µM and the IC50 (D-542MG) was > 5 µM. For the same compound, the IC50 (G-401) was > 5 µM, the IC50 (GMS-10) was > 5 µM and the IC50 (HCC1937) was > 5 µM. The IC50 (HT1197) was > 5 µM, the IC50 (HTC-C3) was > 5 µM and the IC50 (KU-19-19) was > 5 µM. The IC50 (KYSE-410) was > 5 µM, the IC50 (MC-IXC) was > 5 µM and the IC50 (MEL-JUSO) was > 5 µM. For the same compound, the IC50 (MKN-1) was > 5 µM, the IC50 (MOLT-13) was > 5 µM and the IC50 (MeWo) was > 5 µM. The IC50 (NCI-H1048) was > 5 µM, the IC50 (NCI-H1792) was > 5 µM and the IC50 (NCI-H2009) was > 5 µM. The IC50 (NCI-H441) was > 5 µM, the IC50 (OAW-28) was > 5 µM and the IC50 (PANC-08-13) was > 5 µM. For the same compound, the IC50 (RPMI-2650) was > 5 µM, the IC50 (SBC-5) was > 5 µM and the IC50 (SK-LU-1) was > 5 µM. The IC50 (SK-MEL-30) was > 5 µM, the IC50 (SW48) was > 5 µM and the IC50 (SW756) was > 5 µM. The IC50 (T84) was > 5 µM, the IC50 (T98G) was > 5 µM and the IC50 (23132-87) was > 5 µM. For the same compound, the IC50 (647-V) was > 5 µM, the IC50 (A2780) was > 5 µM and the IC50 (ASPC1) was > 5 µM. The IC50 (BPH-1) was > 5 µM, the IC50 (CAL-120) was > 5 µM and the IC50 (UO-31) was > 5 µM. For the same compound, the IC50 (UACC-62) was > 5 µM, the IC50 (UMUC3) was > 5 µM and the IC50 (VM-CUB-1) was > 5 µM. The IC50 (YH-13) was > 5 µM, the IC50 (ZR-75-30) was > 5 µM and the IC50 (CHP-212) was > 5 µM.
